± gives the expanded uncertainty stated by the source.
Experiment: xn = mol fraction of the nth substance listed
Conditions: 101 kPa, Liquid

OCCOCCO [diethylene glycol] + O
Conditions	mass density [kg/m3]	viscosity [mPa·s]
323.15 K, x1 = 0.0255	1005.37 ± 2.4	0.754 ± 0.035
323.15 K, x1 = 0.0565	1022.33 ± 1.9	1.031 ± 0.043
323.15 K, x1 = 0.1027	1041.36 ± 1.2	1.545 ± 0.054
323.15 K, x1 = 0.1966	1064.65 ± 0.81	2.783 ± 0.063
323.15 K, x1 = 0.301	1077.97 ± 0.56	4.231 ± 0.072
323.15 K, x1 = 0.3989	1084.69 ± 0.48	5.509 ± 0.077
323.15 K, x1 = 0.5006	1088.85 ± 0.48	6.694 ± 0.081
323.15 K, x1 = 0.6011	1091.42 ± 0.5	7.635 ± 0.086
323.15 K, x1 = 0.7003	1093.07 ± 0.53	8.477 ± 0.091
323.15 K, x1 = 0.8051	1094.21 ± 0.57	9.115 ± 0.097
323.15 K, x1 = 0.892	1094.88 ± 0.6	9.635 ± 0.1
323.15 K, x1 = 1	1095.51 ± 0.65	10.03 ± 0.11
328.15 K, x1 = 0.0255	1002.86 ± 2.4	–
328.15 K, x1 = 0.0565	1019.53 ± 1.8	–
328.15 K, x1 = 0.1027	1038.21 ± 1.2	–
328.15 K, x1 = 0.1966	1061.13 ± 0.8	–
328.15 K, x1 = 0.301	1074.29 ± 0.55	–
328.15 K, x1 = 0.3989	1080.98 ± 0.47	–
328.15 K, x1 = 0.5006	1085.16 ± 0.47	–
328.15 K, x1 = 0.6011	1087.74 ± 0.49	–
328.15 K, x1 = 0.7003	1089.41 ± 0.52	–
328.15 K, x1 = 0.8051	1090.57 ± 0.56	–
328.15 K, x1 = 0.892	1091.26 ± 0.59	–
328.15 K, x1 = 1	1091.91 ± 0.64	–
333.15 K, x1 = 0.0255	1000.22 ± 2.4	0.62 ± 0.029
333.15 K, x1 = 0.0565	1016.62 ± 1.8	0.849 ± 0.034
333.15 K, x1 = 0.1027	1034.99 ± 1.1	1.236 ± 0.04
333.15 K, x1 = 0.1966	1057.55 ± 0.79	2.147 ± 0.047
333.15 K, x1 = 0.301	1070.58 ± 0.54	3.202 ± 0.053
333.15 K, x1 = 0.3989	1077.25 ± 0.46	4.103 ± 0.057
333.15 K, x1 = 0.5006	1081.43 ± 0.46	4.917 ± 0.062
333.15 K, x1 = 0.6011	1084.04 ± 0.48	5.534 ± 0.066
333.15 K, x1 = 0.7003	1085.74 ± 0.51	6.12 ± 0.069
333.15 K, x1 = 0.8051	1086.93 ± 0.55	6.492 ± 0.073
333.15 K, x1 = 0.892	1087.63 ± 0.58	6.874 ± 0.077
333.15 K, x1 = 1	1088.3 ± 0.63	7.22 ± 0.08
338.15 K, x1 = 0.0255	997.46 ± 2.3	–
338.15 K, x1 = 0.0565	1013.61 ± 1.8	–
338.15 K, x1 = 0.1027	1031.68 ± 1.1	–
338.15 K, x1 = 0.1966	1053.92 ± 0.77	–
338.15 K, x1 = 0.301	1066.84 ± 0.54	–
338.15 K, x1 = 0.3989	1073.49 ± 0.46	–
338.15 K, x1 = 0.5006	1077.69 ± 0.45	–
338.15 K, x1 = 0.6011	1080.33 ± 0.47	–
338.15 K, x1 = 0.7003	1082.06 ± 0.5	–
338.15 K, x1 = 0.8051	1083.27 ± 0.54	–
338.15 K, x1 = 0.892	1083.99 ± 0.57	–
338.15 K, x1 = 1	1084.68 ± 0.62	–
343.15 K, x1 = 0.0255	994.57 ± 2.3	0.527 ± 0.024
343.15 K, x1 = 0.0565	1010.51 ± 1.7	0.71 ± 0.028
343.15 K, x1 = 0.1027	1028.29 ± 1.1	1.011 ± 0.032
343.15 K, x1 = 0.1966	1050.24 ± 0.76	1.703 ± 0.036
343.15 K, x1 = 0.301	1063.06 ± 0.53	2.514 ± 0.041
343.15 K, x1 = 0.3989	1069.69 ± 0.45	3.15 ± 0.043
343.15 K, x1 = 0.5006	1073.93 ± 0.44	3.731 ± 0.047
343.15 K, x1 = 0.6011	1076.59 ± 0.46	4.217 ± 0.051
343.15 K, x1 = 0.7003	1078.36 ± 0.49	4.617 ± 0.054
343.15 K, x1 = 0.8051	1079.6 ± 0.53	4.863 ± 0.058
343.15 K, x1 = 0.892	1080.34 ± 0.56	5.121 ± 0.061
343.15 K, x1 = 1	1081.05 ± 0.61	5.369 ± 0.063
348.15 K, x1 = 0.0255	991.57 ± 2.3	–
348.15 K, x1 = 0.0565	1007.27 ± 1.7	–
348.15 K, x1 = 0.1027	1024.84 ± 1.1	–
348.15 K, x1 = 0.1966	1046.51 ± 0.75	–
348.15 K, x1 = 0.301	1059.24 ± 0.52	–
348.15 K, x1 = 0.3989	1065.88 ± 0.44	–
348.15 K, x1 = 0.5006	1070.14 ± 0.44	–
348.15 K, x1 = 0.6011	1072.84 ± 0.45	–
348.15 K, x1 = 0.7003	1074.63 ± 0.48	–
348.15 K, x1 = 0.8051	1075.91 ± 0.52	–
348.15 K, x1 = 0.892	1076.67 ± 0.55	–
348.15 K, x1 = 1	1077.4 ± 0.6	–
353.15 K, x1 = 0.0255	988.5 ± 2.3	0.465 ± 0.02
353.15 K, x1 = 0.0565	1004.07 ± 1.7	0.606 ± 0.023
353.15 K, x1 = 0.1027	1021.3 ± 1.1	0.848 ± 0.026
353.15 K, x1 = 0.1966	1042.72 ± 0.75	1.392 ± 0.03
353.15 K, x1 = 0.301	1055.38 ± 0.51	2.043 ± 0.032
353.15 K, x1 = 0.3989	1062.02 ± 0.43	2.502 ± 0.034
353.15 K, x1 = 0.5006	1066.32 ± 0.43	2.942 ± 0.037
353.15 K, x1 = 0.6011	1069.05 ± 0.45	3.283 ± 0.04
353.15 K, x1 = 0.7003	1070.89 ± 0.47	3.593 ± 0.043
353.15 K, x1 = 0.8051	1072.2 ± 0.51	3.818 ± 0.046
353.15 K, x1 = 0.892	1072.99 ± 0.54	4.024 ± 0.048
353.15 K, x1 = 1	1073.74 ± 0.59	4.139 ± 0.05

Reference: the NIST ThermoML archive (doi:10.1021/je700672f)
